According to patent publication EP4640240A1, “PEPTIDE-BASED RADIOPHARMACEUTICALS FOR NON-INVASIVE IMAGING OF THE FUNCTIONAL LIVER RESERVE” (Medizinische Universität Innsbruck, priority 2024, dated 2025):
Where two headings read alike, the source gives them in different places.

Tests used:
[1] = Partition coefficient logD (n-octanol/PBS); format: physicochemical; conditions: n=6
Procedure: For determination of logarithmic partition coefficients (logD) n-Octanol (500 µL) and PBS (500 µL) were pipetted into eight 1.5 mL Protein Low-Bind Eppendorf tubes followed by addition of 300 kBq of labelled compound. The vials were vortexed for 5 min at 1,500 1/min and then centrifuged for 5 min at 20,000 rcf (Eppendorf Centrifuge 5424). Aliquots of 100 µL were taken out of each phase and the amount of activity was quantified in a γ-counter (Perkin Elmer 2480 Wizard2 3"; Waltham, Massachusetts, USA).

[2] = Biodistribution studies in BALB/c mice; format: in vivo; conditions: for tissue uptake at 10 min / tissue uptake at 0.5 h / tissue uptake at 1 h: female, mouse, iv, total radioactivity, healthy BALB/c mice, 0.1 nmol i.v.; for tissue uptake at 10 min: 10 min p.i.; for tissue uptake at 0.5 h: 30 min p.i.; for tissue uptake at 1 h: 60 min p.i.
Procedure: For biodistribution studies 6-week-old female BALB/c mice (n=3) were injected with 0.1 nmol (100 µL, approx. 1 MBq) of labelled compound via the lateral tail vein and sacrificed after 10, 30, or 60 min by cervical dislocation. The mice were dissected, blood and organs (spleen, pancreas, stomach, intestine, liver, kidney, heart, lung, muscle and bone) were weighed and their activity measured in a γ-counter. For blocking experiments, mice were co-injected with 27.7 µmοl N-acetylgalactose.

[3] = Protein binding in human serum (MicroSpin G-50 columns); format: in vitro ADME; conditions: fresh human serum, 37 °C, n=3
Procedure: Protein binding was determined for different time points (2 min, 30 min, 60 min, 120 min) in triplicates using Sephadex MicroSpin G-50 columns (GE-Healthcare, Chicago, Illinois, USA). The columns were spun initially at 20,000 rcf for 1 min to remove the storage buffer. Then approx. 5 MBq of radioligand was added to 1 mL of fresh human serum and incubated at 37 °C. At each given timepoint 25 µL of the mixture was loaded on to the column, which was then spun at 20,000 rcf for 1 min. The activity content on the column (free radioligand) and in the filtrate (protein bound fraction) was quantified in a γ-counter.

[4] = Stability in human blood serum (radio-HPLC); format: in vitro ADME; conditions: 37 °C
Procedure: Ligand stability in human blood serum (n = 2) and PBS (pH = 6.5) (n = 1) was determined for different time points (2 min, 30 min, 60 min, 120 min). Therefore, approx. 5 MBq of radioligand was added to 1 mL of fresh human serum at 37 °C or PBS at rt. At each given time point 100 µL of the mixture were transferred to a 1.5 mL Eppendorf tube containing 100 µL of acetonitrile. The vial was vortexed and centrifuged for 2 min at 14,000 1/min before 100 µL of the supernatant were diluted with 200 µL of water and injected into analytical radio-HPLC. The PBS solution was directly injected into the radio-HPLC. Ligand stability was determined by integrating the areas of the signals in the radio chromatogram in relation to the signal of the intact ligand.

[5] = BALB/c mice, comparison with ^99mTc-GSA
[6] = Blood, read-out: Biodistribution data, Blood
[7] = Femur, read-out: Biodistribution data, Femur
[8] = Heart, read-out: Biodistribution data, Heart
[9] = Intestine, read-out: Biodistribution data, Intestine
[10] = Kidneys, read-out: Biodistribution data, Kidneys
[11] = Liver, read-out: Biodistribution data, Liver
[12] = Lung, read-out: Biodistribution data, Lung
[13] = Muscle, read-out: Biodistribution data, Muscle
[14] = Pancreas, read-out: Biodistribution data, Pancreas
[15] = Spleen, read-out: Biodistribution data, Spleen
[16] = Stomach, read-out: Biodistribution data, Stomach

Question: With `NC(=O)CNC(=O)CNC(=O)[C@H](CCCCNC(=O)CCCCc1cn(C2O[C@H](CO)[C@H](O)[C@H](O)[C@H]2O)nn1)NC(=O)CNC(=O)CNC(=O)[C@H](CCCCNC(=O)CCCCc1cn(C2O[C@H](CO)[C@H](O)[C@H](O)[C@H]2O)nn1)NC(=O)CNC(=O)CNC(=O)[C@H](CCCCNC(=O)CCCCc1cn(C2O[C@H](CO)[C@H](O)[C@H](O)[C@H]2O)nn1)NC(=O)CNC(=O)CNC(=O)[C@H](CCCCNC(=O)CCCCc1cn(C2O[C@H](CO)[C@H](O)[C@H](O)[C@H]2O)nn1)NC(=O)CNC(=O)CNC(=O)[C@H](CCCCNC(=O)CCCCc1cn(C2O[C@H](CO)[C@H](O)[C@H](O)[C@H]2O)nn1)NC(=O)CNC(=O)CNC(=O)[C@H](CCCCNC(=O)CCCCc1cn(C2O[C@H](CO)[C@H](O)[C@H](O)[C@H]2O)nn1)NC(=O)CNC(=O)CNC(=O)[C@H](CCCCNC(=O)CCCCc1cn(C2O[C@H](CO)[C@H](O)[C@H](O)[C@H]2O)nn1)NC(=O)CNC(=O)CNC(=O)[C@H](CCCCNC(=O)CCCCc1cn(C2O[C@H](CO)[C@H](O)[C@H](O)[C@H]2O)nn1)NC(=O)CNC(=O)CNC(=O)[C@H](CCCCNC(=O)CCCCc1cn(C2O[C@H](CO)[C@H](O)[C@H](O)[C@H]2O)nn1)NC(=O)CCCNC(=O)CC[C@H](C(=O)O)N1CCN(CC(=O)O)CCN(CC(=O)O)CC1` (some centres unmarked) [[68Ga]Ga-NonaLysan, metal not drawn] as the compound, how does the logD [1] read?
Answer: -4.06 ± 0.09

Question: And the “activity accumulation in the liver (in words)” value [2, 5]?
Answer: outperforms the accumulation in the liver found for the gold standard ^99mTc-GSA

Question: What about the “activity concentration in the intestine (in words)” value [2, 5] of the same compound?
Answer: activity concentration is lower as found for ^99mTc-GSA

Question: What about the tissue uptake at 10 min [2, 6] of the same compound?
Answer: 0.43 ± 0.03 %ID/g

Question: And the tissue uptake at 0.5 h [2, 6]?
Answer: 0.15 ± 0.04 %ID/g

Question: What about the tissue uptake at 1 h [2, 6] of the same compound?
Answer: 0.22 ± 0.05 %ID/g

Question: And the tissue uptake at 10 min [2, 7]?
Answer: 0.26 ± 0.02 %ID/g

Question: What about the tissue uptake at 0.5 h [2, 7] of the same compound?
Answer: 0.26 ± 0.08 %ID/g

Question: And the tissue uptake at 1 h [2, 7]?
Answer: 0.23 ± 0.01 %ID/g

Question: And the tissue uptake at 10 min [2, 8]?
Answer: 0.44 ± 0.04 %ID/g

Question: What about the tissue uptake at 0.5 h [2, 8] of the same compound?
Answer: 0.44 ± 0.04 %ID/g

Question: What about the tissue uptake at 1 h [2, 8] of the same compound?
Answer: 0.52 ± 0.07 %ID/g

Question: What about the tissue uptake at 10 min [2, 9] of the same compound?
Answer: 0.77 ± 0.17 %ID/g

Question: And the tissue uptake at 0.5 h [2, 9]?
Answer: 5.61 ± 0.22 %ID/g

Question: What about the tissue uptake at 1 h [2, 9] of the same compound?
Answer: 7.91 ± 0.49 %ID/g

Question: What about the tissue uptake at 10 min [2, 10] of the same compound?
Answer: 1.16 ± 0.12 %ID/g

Question: What about the tissue uptake at 0.5 h [2, 10] of the same compound?
Answer: 0.83 ± 0.03 %ID/g

Question: What about the tissue uptake at 1 h [2, 10] of the same compound?
Answer: 0.99 ± 0.15 %ID/g

Question: What about the tissue uptake at 10 min [2, 11] of the same compound?
Answer: 71.23 ± 0.43 %ID/g

Question: And the tissue uptake at 0.5 h [2, 11]?
Answer: 79.6 ± 7.96 %ID/g

Question: And the tissue uptake at 1 h [2, 11]?
Answer: 69.6 ± 0.98 %ID/g

Question: What about the tissue uptake at 10 min [2, 12] of the same compound?
Answer: 0.85 ± 0.1 %ID/g

Question: And the tissue uptake at 0.5 h [2, 12]?
Answer: 0.7 ± 0.08 %ID/g

Question: And the tissue uptake at 1 h [2, 12]?
Answer: 0.92 ± 0.1 %ID/g

Question: And the tissue uptake at 10 min [2, 13]?
Answer: 0.61 ± 0.07 %ID/g

Question: What about the tissue uptake at 0.5 h [2, 13] of the same compound?
Answer: 0.66 ± 0.03 %ID/g

Question: And the tissue uptake at 1 h [2, 13]?
Answer: 0.59 ± 0.09 %ID/g

Question: What about the tissue uptake at 10 min [2, 14] of the same compound?
Answer: 0.75 ± 0.07 %ID/g

Question: What about the tissue uptake at 0.5 h [2, 14] of the same compound?
Answer: 0.91 ± 0.05 %ID/g

Question: What about the tissue uptake at 1 h [2, 14] of the same compound?
Answer: 1.16 ± 0.19 %ID/g

Question: What about the tissue uptake at 10 min [2, 15] of the same compound?
Answer: 0.57 ± 0.16 %ID/g

Question: What about the tissue uptake at 0.5 h [2, 15] of the same compound?
Answer: 0.17 ± 0.03 %ID/g

Question: And the tissue uptake at 1 h [2, 15]?
Answer: 0.49 ± 0.03 %ID/g

Question: And the tissue uptake at 10 min [2, 16]?
Answer: 0.73 ± 0.16 %ID/g

Question: And the tissue uptake at 0.5 h [2, 16]?
Answer: 1.15 ± 0.44 %ID/g

Question: What about the tissue uptake at 1 h [2, 16] of the same compound?
Answer: 1.78 ± 0.98 %ID/g

Question: And the fraction unbound ([3]; 2 min)?
Answer: 0.847

Question: And the fraction unbound ([3]; 30 min)?
Answer: 0.717

Question: What about the fraction unbound ([3]; 60 min) of the same compound?
Answer: 0.737

Question: What about the fraction unbound ([3]; 120 min) of the same compound?
Answer: 0.785

Question: And the remaining at 2 min ([4]; 2 min, n=2, read-out: Serum stability (% of intact ligand))?
Answer: 99.5 ± 0.1%

Question: And the remaining at 0.5 h ([4]; 30 min, n=2, read-out: Serum stability (% of intact ligand))?
Answer: 99.5 ± 0.1%

Question: And the “Serum stability (% of intact ligand)” value ([4]; 60 min, n=2)?
Answer: 99.5 ± 0.1%

Question: And the remaining at 2 h ([4]; 120 min, n=2, read-out: Serum stability (% of intact ligand))?
Answer: 99.6%
